According to US3931197A, “Substituted piperidine derivatives” (Richardson-Merrell Inc., priority 1974, dated 1976):

tested on: wheals induced by intradermal injections of 1γ of histamine; assay: reduction by 50% of wheals induced by intradermal injections of histamine in guinea pigs; assay type: in vivo; details: Cavia porcellus, po, 1 h, orally administered one hour prior to intradermal injection of 1γ histamine, read-out: ED50 (amount of compound required to reduce by 50% wheals induced by intradermal injections of histamine)
Description: To illustrate the utility of the compounds of this invention the following tabulation indicates the amount of certain representative compounds of this invention required to reduce by 50% wheals induced by intradermal injections of 1γ of histamine into guinea pigs. Each compound was orally administered one hour prior to the histamine injection.

Structure (SMILES)	ED50
CC(C)(C)Cc1ccc(C(=O)CCCN2CCC(C(O)(c3ccccc3)c3ccccc3)CC2)cc1.Cl [4-[4-(α-Hydroxy-α-phenylbenzyl)piperidino]-4'-neopentyl-butyrophenone hydrochloride]	0.5 mg/kg
Cl.O=C(CCCN1CCC(C(O)(c2ccccc2)c2ccccc2)CC1)c1ccc(C2CCCC2)cc1 [4'-Cyclopentyl-4-[4-(α-hydroxy-α-phenylbenzyl)piperidino]-butyrophenone hydrochloride]	2.5 mg/kg
CC(C)(C)c1ccc(C(=O)CCCN2CCC(C(O)(c3ccccc3)c3ccc(Cl)cc3)CC2)cc1.Cl (stereo not drawn) [4'-tert-Butyl-4-[4-[α-hydroxy-α-(p-chlorophenyl)benzyl]-piperidino]butyrophenone hydrochloride]	27 mg/kg
Cl.O=C(CCCN1CCC(C(O)(c2ccccc2)c2ccccc2)CC1)c1ccc2ccccc2c1 [4-[4-(α-Hydroxy-α-phenylbenzyl)piperidino]-1-(2-naphthyl)-butan-1-one hydrochloride]	3.6 mg/kg
Cc1ccc(C(O)(c2ccccc2)C2CCN(CCCC(=O)c3ccc(C(C)(C)C)cc3)CC2)cc1.Cl (stereo not drawn) [4'-tert-Butyl-4-[4-[α-hydroxy-α-(p-tolyl)benzyl]piperidino]-butyrophenone hydrochloride]	6 mg/kg
Cc1ccc(C(=C2CCN(CCCC(=O)c3ccc(C(C)(C)C)cc3)CC2)c2ccccc2)cc1.Cl [4'-tert-Butyl-4-[4-[α-(p-tolyl)benzylidene]piperidino]-butyrophenone hydrochloride]	~10 mg/kg
